Where two headings read alike, the source gives them in different places.
Key:
kinases (468) [1] = target: kinases (468) (Homo sapiens, UniProt O00750); conditions: PIK3C2B; 1000 nM
kinases (468) [2] = target: kinases (468) (Homo sapiens, UniProt O95819); conditions: MAP4K4; 1000 nM
kinases (468) [3] = target: kinases (468) (Homo sapiens, UniProt P00533, DEL752-759); conditions: EGFR(S752-I759del); 1000 nM
kinases (468) [4] = target: kinases (468) (Homo sapiens, UniProt P10721, L576P); conditions: KIT(L576P); 1000 nM
kinases (468) [5] = target: kinases (468) (Homo sapiens, UniProt P10721, V559D/V654A); conditions: KIT(V559D,V654A); 1000 nM
kinases (468) [6] = target: kinases (468) (Homo sapiens, UniProt P11309); conditions: PIM1; 1000 nM
kinases (468) [7] = target: kinases (468) (Homo sapiens, UniProt P15056); conditions: BRAF; 1000 nM
kinases (468) [8] = target: kinases (468) (Homo sapiens, UniProt P17612); conditions: PKAC-alpha (PRKACA); 1000 nM
kinases (468) [9] = target: kinases (468) (Homo sapiens, UniProt P23443); conditions: kinase S6K1 (Entrez RPS6KB1); compound concentration 1000 nM
kinases (468) [10] = target: kinases (468) (Homo sapiens, UniProt P30530); conditions: AXL; 1000 nM
kinases (468) (Homo sapiens, UniProt P30530), sequence (P30530 26-894): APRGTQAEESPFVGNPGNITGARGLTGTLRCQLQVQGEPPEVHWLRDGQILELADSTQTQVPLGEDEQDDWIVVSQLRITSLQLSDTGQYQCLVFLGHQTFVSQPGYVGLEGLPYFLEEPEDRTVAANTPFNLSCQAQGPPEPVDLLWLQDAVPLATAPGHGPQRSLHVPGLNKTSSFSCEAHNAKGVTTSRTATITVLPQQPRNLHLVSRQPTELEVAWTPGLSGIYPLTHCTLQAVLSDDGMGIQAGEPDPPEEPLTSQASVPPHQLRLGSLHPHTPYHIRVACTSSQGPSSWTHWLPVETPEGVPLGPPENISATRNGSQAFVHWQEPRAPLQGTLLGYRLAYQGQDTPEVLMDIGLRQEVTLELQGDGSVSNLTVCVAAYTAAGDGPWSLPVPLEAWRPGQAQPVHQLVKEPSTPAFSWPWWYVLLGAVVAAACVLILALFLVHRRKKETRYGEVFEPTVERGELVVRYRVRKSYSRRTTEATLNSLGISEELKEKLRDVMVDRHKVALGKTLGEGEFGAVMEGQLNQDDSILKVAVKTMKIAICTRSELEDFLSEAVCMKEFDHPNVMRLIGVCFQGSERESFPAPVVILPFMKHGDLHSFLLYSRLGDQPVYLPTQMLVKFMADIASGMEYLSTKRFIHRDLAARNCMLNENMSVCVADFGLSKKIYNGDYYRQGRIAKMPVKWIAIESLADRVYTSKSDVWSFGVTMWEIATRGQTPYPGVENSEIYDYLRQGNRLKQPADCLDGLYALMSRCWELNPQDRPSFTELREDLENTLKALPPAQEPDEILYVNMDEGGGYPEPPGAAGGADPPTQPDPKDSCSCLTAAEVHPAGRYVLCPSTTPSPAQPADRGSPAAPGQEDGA

kinases (468) [11] = target: kinases (468) (Homo sapiens, UniProt P35626); conditions: GRK3 (ADRBK2); 1000 nM
kinases (468) (Homo sapiens, UniProt P35626), sequence (P35626 whole entry): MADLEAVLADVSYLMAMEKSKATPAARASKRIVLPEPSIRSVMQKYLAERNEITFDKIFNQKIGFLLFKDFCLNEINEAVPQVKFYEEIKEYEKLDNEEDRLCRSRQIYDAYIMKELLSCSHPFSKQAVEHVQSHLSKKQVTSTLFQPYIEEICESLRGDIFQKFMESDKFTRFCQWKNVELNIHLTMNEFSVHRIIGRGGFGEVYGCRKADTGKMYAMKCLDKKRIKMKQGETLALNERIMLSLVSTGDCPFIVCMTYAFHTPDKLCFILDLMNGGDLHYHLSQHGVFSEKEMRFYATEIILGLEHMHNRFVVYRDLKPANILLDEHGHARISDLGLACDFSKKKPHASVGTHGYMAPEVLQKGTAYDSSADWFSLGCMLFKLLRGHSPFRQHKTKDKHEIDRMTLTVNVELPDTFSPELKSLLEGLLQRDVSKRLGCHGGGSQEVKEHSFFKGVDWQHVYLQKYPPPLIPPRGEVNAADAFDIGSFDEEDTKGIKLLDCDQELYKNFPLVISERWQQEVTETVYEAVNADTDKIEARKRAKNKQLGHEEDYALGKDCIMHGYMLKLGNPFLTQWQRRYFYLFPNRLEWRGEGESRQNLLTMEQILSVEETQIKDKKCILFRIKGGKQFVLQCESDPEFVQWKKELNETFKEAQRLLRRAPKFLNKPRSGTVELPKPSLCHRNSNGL

kinases (468) [12] = target: kinases (468) (Homo sapiens, UniProt P36888, D835V); conditions: FLT3(D835V); 1000 nM
kinases (468) [13] = target: kinases (468) (Homo sapiens, UniProt P41743); conditions: PRKCI; 1000 nM
kinases (468) [14] = target: kinases (468) (Homo sapiens, UniProt P42336); conditions: PIK3CA; 1000 nM
kinases (468) [15] = target: kinases (468) (Homo sapiens, UniProt P42336, M1043I); conditions: PIK3CA(M1043I); 1000 nM
kinases (468) [16] = target: kinases (468) (Homo sapiens, UniProt P78362); conditions: kinase SRPK2 (Entrez SRPK2); compound concentration 1000 nM
kinases (468) (Homo sapiens, UniProt P78362), sequence (P78362 whole entry): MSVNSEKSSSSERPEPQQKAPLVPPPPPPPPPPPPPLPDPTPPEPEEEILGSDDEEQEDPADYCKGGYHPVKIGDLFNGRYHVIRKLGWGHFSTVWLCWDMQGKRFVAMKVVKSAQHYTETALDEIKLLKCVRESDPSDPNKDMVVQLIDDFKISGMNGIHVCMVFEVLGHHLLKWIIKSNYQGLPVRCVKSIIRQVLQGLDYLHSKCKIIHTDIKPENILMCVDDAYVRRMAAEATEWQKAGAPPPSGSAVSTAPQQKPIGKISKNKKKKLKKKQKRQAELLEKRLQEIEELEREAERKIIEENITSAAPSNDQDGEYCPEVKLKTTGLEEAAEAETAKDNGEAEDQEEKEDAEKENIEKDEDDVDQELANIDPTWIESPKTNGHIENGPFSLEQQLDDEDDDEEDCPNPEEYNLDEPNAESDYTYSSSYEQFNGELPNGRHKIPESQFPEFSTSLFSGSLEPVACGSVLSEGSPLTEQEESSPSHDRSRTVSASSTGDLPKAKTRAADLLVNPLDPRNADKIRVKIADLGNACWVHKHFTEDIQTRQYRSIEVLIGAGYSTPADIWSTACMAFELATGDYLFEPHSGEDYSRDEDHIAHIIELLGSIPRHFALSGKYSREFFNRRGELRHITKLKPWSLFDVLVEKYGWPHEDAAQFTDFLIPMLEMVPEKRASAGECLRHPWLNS

kinases (468) [17] = target: kinases (468) (Homo sapiens, UniProt Q00535); conditions: CDK5; 1000 nM
kinases (468) [18] = target: kinases (468) (Homo sapiens, UniProt Q00537); conditions: PCTK2 (CDK17); 1000 nM
kinases (468) [19] = target: kinases (468) (Homo sapiens, UniProt Q02763); conditions: kinase TIE2 (Entrez TEK); compound concentration 1000 nM
kinases (468) [20] = target: kinases (468) (Homo sapiens, UniProt Q13233); conditions: MAP3K1; 1000 nM
kinases (468) [21] = target: kinases (468) (Homo sapiens, UniProt Q15303); conditions: ERBB4; 1000 nM
kinases (468) [22] = target: kinases (468) (Homo sapiens, UniProt Q15418); conditions: compound concentration 1000 nM
kinases (468) (Homo sapiens, UniProt Q15418), sequence (Q15418 whole entry): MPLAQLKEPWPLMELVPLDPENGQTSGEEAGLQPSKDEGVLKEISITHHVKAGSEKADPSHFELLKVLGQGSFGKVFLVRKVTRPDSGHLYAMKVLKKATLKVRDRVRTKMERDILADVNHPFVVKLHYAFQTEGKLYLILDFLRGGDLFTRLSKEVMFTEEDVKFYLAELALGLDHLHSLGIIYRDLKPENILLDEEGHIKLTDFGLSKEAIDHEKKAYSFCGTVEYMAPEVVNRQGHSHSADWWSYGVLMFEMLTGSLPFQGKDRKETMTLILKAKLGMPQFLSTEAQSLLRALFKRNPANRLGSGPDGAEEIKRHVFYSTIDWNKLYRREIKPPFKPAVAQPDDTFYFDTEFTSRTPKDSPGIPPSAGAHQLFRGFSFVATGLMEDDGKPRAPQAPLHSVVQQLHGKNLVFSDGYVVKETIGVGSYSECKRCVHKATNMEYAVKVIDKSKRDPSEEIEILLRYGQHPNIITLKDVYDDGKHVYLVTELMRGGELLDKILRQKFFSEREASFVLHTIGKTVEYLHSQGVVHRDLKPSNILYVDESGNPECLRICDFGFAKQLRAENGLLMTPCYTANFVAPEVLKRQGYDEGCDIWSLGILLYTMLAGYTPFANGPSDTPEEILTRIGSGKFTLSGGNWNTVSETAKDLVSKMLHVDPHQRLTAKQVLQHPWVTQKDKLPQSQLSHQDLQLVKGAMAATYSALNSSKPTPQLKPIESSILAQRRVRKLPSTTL

kinases (468) [23] = target: kinases (468) (Homo sapiens, UniProt Q5S007); conditions: LRRK2; 1000 nM
kinases (468) [24] = target: kinases (468) (Homo sapiens, UniProt Q8IVH8); conditions: MAP4K3; 1000 nM
kinases (468) [25] = target: kinases (468) (Homo sapiens, UniProt Q8TDX7); conditions: NEK7; 1000 nM
kinases (468) [26] = target: kinases (468) (Homo sapiens, UniProt Q96GD4); conditions: AURKB; 1000 nM
kinases (468) [27] = target: kinases (468) (Homo sapiens, UniProt Q99558); conditions: NIK (MAP3K14); 1000 nM
kinases (468) [28] = target: kinases (468) (Homo sapiens, UniProt Q9BUB5); conditions: MKNK1; 1000 nM
kinases (468) (Homo sapiens, UniProt Q9BUB5), sequence (Q9BUB5 whole entry): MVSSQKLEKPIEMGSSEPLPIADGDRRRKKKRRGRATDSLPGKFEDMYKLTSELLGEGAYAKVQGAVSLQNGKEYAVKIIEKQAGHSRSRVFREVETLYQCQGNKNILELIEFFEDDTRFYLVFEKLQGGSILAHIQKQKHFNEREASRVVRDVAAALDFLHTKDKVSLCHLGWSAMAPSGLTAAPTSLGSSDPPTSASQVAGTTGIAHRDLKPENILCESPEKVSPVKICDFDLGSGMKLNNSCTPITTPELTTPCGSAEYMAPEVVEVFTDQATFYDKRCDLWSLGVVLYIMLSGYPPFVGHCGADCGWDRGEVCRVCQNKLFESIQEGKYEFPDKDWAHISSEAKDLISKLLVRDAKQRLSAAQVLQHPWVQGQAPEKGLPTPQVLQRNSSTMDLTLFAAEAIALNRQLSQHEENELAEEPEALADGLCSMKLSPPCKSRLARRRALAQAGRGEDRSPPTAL

kinases (468) [29] = target: kinases (468) (Homo sapiens, UniProt Q9BX84); conditions: kinase TRPM6 (Entrez TRPM6); compound concentration 1000 nM
kinases (468) [30] = target: kinases (468) (Homo sapiens, UniProt Q9HBY8); conditions: kinase SGK2 (Entrez SGK2); compound concentration 1000 nM
kinases (468) [31] = target: kinases (468) (Homo sapiens, UniProt Q9NYY3); conditions: PLK2; 1000 nM
kinases (468) [32] = target: kinases (468) (Homo sapiens, UniProt Q9UKI8); conditions: kinase TLK1 (Entrez TLK1); compound concentration 1000 nM
kinases (468) [33] = target: kinases (468) (Homo sapiens, UniProt Q9UM73, C1156Y); conditions: ALK(C1156Y); 1000 nM
kinases (468) [34] = target: kinases (468) (Homo sapiens, UniProt Q9Y2H1); conditions: NDR2 (STK38L); 1000 nM

kinases (468) (Homo sapiens, UniProt O00750), sequence (O00750 whole entry): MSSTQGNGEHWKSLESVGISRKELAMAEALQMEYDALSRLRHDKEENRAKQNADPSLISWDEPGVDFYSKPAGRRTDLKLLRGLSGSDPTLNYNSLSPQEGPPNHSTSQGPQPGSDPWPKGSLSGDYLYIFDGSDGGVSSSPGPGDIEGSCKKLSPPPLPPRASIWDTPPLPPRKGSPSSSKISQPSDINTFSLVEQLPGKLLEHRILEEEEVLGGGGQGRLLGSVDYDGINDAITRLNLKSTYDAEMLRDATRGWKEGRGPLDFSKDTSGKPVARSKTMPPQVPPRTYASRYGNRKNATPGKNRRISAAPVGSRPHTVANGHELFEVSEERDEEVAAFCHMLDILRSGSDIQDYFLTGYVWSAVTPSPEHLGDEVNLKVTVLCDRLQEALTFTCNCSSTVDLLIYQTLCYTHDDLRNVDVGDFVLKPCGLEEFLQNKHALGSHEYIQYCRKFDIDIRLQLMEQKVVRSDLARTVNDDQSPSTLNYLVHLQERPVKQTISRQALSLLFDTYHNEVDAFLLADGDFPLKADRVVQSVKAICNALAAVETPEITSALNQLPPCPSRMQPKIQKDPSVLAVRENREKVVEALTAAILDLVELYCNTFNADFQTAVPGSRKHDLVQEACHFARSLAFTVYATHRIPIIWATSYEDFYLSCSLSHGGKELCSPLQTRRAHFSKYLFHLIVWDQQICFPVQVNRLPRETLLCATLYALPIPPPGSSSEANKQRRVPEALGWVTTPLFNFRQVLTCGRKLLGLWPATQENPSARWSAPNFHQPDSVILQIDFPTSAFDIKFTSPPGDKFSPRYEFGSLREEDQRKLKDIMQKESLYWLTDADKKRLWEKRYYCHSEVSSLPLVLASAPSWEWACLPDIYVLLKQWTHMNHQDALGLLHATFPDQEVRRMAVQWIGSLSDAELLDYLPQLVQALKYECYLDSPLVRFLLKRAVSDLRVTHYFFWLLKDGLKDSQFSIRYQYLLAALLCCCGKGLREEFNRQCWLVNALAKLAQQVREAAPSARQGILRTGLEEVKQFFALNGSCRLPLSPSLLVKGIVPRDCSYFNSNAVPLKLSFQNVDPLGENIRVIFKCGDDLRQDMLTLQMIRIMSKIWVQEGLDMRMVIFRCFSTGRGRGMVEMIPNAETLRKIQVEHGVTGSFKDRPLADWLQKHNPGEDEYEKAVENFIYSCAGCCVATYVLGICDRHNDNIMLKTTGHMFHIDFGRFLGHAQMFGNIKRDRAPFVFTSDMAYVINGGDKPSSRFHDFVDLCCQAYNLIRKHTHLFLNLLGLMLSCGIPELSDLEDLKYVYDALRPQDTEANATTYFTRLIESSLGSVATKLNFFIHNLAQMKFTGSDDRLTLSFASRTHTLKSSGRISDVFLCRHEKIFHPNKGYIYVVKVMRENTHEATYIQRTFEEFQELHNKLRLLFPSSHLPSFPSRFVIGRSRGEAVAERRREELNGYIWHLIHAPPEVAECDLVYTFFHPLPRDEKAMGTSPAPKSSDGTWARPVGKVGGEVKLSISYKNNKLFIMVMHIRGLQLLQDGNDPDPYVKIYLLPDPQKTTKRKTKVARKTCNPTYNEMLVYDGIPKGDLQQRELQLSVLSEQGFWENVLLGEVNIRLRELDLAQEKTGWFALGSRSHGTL

C[C@H]1C[C@@H](O)CN(c2ncc(Cl)c(Nc3ccc4c(c3)c3c(c(=O)n4C)OCC(F)(F)[C@H](C4CC4)N3)n2)C1 [CCT373566_9A] was tested, and the “Percent Control” value (kinases (468) [1]) was 100%, the “Percent Control” value (kinases (468) [2]) was 87% and the “Percent Control” value (kinases (468) [3]) was 86%. The “Percent Control” value (kinases (468) [4]) was 100%, the “Percent Control” value (kinases (468) [5]) was 98% and the “Percent Control” value (kinases (468) [6]) was 100%. The “Percent Control” value (kinases (468) [7]) was 92%, the “Percent Control” value (kinases (468) [8]) was 100% and the “Percent Control” value (kinases (468) [9]) was 85%. For the same compound, the “Percent Control” value (kinases (468) [10]) was 95%, the “Percent Control” value (kinases (468) [11]) was 100% and the “Percent Control” value (kinases (468) [12]) was 90%. The “Percent Control” value (kinases (468) [13]) was 88%, the “Percent Control” value (kinases (468) [14]) was 100% and the “Percent Control” value (kinases (468) [15]) was 89%. The “Percent Control” value (kinases (468) [16]) was 100%, the “Percent Control” value (kinases (468) [17]) was 97% and the “Percent Control” value (kinases (468) [18]) was 95%. The “Percent Control” value (kinases (468) [19]) was 100%, the “Percent Control” value (kinases (468) [20]) was 93% and the “Percent Control” value (kinases (468) [21]) was 99%. For the same compound, the “Percent Control” value (kinases (468) [22]; kinase RSK1(Kin.Dom.1-N-terminal) (Entrez RPS6KA1)) was 95%, the “Percent Control” value (kinases (468) [22]; kinase RSK1(Kin.Dom.2-C-terminal) (Entrez RPS6KA1)) was 90% and the “Percent Control” value (kinases (468) [23]) was 98%. The “Percent Control” value (kinases (468) [24]) was 100%, the “Percent Control” value (kinases (468) [25]) was 96% and the “Percent Control” value (kinases (468) [26]) was 92%. For the same compound, the “Percent Control” value (kinases (468) [27]) was 83%, the “Percent Control” value (kinases (468) [28]) was 91% and the “Percent Control” value (kinases (468) [29]) was 95%. For the same compound, the “Percent Control” value (kinases (468) [30]) was 86%, the “Percent Control” value (kinases (468) [31]) was 87% and the “Percent Control” value (kinases (468) [32]) was 87%. For the same compound, the “Percent Control” value (kinases (468) [33]) was 95% and the “Percent Control” value (kinases (468) [34]) was 98%.

Source: PMC9234961 (Journal of Medicinal Chemistry, 2022)
